Test results as given in patent publication US8389680B2, “Treatment of Aspergillus infections with alpha thymosin peptides” (SciClone Pharmaceuticals, Inc., priority 2003, dated 2013).

Legend:
[1] = test system: murine DCs; assay: IL-12 p70 and IL-10 production by murine DCs in response to microbial TLR ligands; assay type: cell-based
Description: Zymosan was from Saccharomyces cerevisiae, lipoteichoic acid (LTA) from Staphylococcus aureus, and lipopolysaccharide (LPS) from Salmonella Minnesota Re 595. The CpG oligonucleotides 1826 and 2006 were proven immunostimulatory sequences. For phagocytosis, DCs were pre-exposed to 100 ng/ml TA1 for 60 minutes and subsequently incubated at 37° C. with Aspergillus conidia for an additional 60 minutes. The percentage of internalization was calculated and photographs were taken. In assessing functional maturation and cytokine determination, purified DCs were resuspended in Iscove's medium (with no serum but with polymixin B, to avoid non-specific activation by serum components and endotoxin) and pulsed with 100 ng/ml TA1 for 24 hours either alone or together with TLR ligands or unopsonized Aspergillus conidia. The levels of TNF-alpha, IL-10, IL-12 p70, IFN-alpha and IL-8 in culture supernatants were determined by Kit ELISAs. The detection limits (pg/ml) of the assays were <3 (human) and <32 (murine) for TNF-alpha, <12 (murine) and <5 (human) for IL-10, <16 (murine) and <3 (human) for IL-12 p70 and <25 (human) IL-8. For human IFN-alpha <3 ng/ml. For enumeration of cytokine-producing cells, an ELISPOT assay was used on purified CD4^+ T cells and DCs from lungs.

[2] = biological target: T1, TLR4/CD14 (Homo sapiens, UniProt O00206); assay: IL-8 production by TLR4/CD14-transfected HEK293 cells; assay type: cell-based
T1 construct: expressed in transfected cells; host or cells: HEK293
T1 sequence (O00206 24-839): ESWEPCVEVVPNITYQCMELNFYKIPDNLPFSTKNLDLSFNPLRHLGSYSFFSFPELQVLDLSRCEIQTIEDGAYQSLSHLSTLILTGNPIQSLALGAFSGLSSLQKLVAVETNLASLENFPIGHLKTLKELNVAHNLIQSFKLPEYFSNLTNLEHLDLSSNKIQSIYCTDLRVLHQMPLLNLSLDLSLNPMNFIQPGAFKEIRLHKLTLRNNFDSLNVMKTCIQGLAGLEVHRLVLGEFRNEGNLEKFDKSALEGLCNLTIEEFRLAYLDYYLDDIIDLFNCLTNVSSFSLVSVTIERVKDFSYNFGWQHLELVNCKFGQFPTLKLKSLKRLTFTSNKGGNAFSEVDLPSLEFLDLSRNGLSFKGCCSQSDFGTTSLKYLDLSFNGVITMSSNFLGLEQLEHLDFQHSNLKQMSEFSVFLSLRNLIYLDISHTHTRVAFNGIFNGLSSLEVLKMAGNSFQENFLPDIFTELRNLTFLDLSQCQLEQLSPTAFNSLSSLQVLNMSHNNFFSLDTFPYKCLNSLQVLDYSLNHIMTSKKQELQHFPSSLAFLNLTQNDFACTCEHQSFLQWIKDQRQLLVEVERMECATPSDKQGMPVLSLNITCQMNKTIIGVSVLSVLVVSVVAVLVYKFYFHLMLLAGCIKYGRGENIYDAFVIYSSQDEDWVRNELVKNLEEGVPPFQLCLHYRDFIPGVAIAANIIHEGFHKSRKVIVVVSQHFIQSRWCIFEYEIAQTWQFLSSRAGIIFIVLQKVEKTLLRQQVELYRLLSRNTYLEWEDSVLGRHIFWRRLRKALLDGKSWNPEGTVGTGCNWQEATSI
Description: The human embryonic kidney cell line HEK293, wild type or stably transfected with human TLR2, TLR9 and TLR4/CD1427 were cultured in low glucose Dulbecco's modified Eagle's medium supplemented with 10% FCS, HEPES ([…]), L-glutamine ([…]), and gentamycin (50 microgram/ml). Transfectants were additionally supplemented with puromycin (100 microgram/ml). For stimulation experiments, cells were cultured at a density of 3 to 5×10^5 cells/wells in 12-well tissue culture plates overnight. Cells were washed and stimulated with 100 ng/ml TA1 either alone or together with TLR ligands for 5 h before the assessment of IL-8 production in the supernatants.
The levels of TNF-alpha, IL-10, IL-12 p70, IFN-alpha and IL-8 in culture supernatants were determined by Kit ELISAs. The detection limits (pg/ml) of the assays were <3 (human) and <32 (murine) for TNF-alpha, <12 (murine) and <5 (human) for IL-10, <16 (murine) and <3 (human) for IL-12 p70 and <25 (human) IL-8. For human IFN-alpha <3 ng/ml. For enumeration of cytokine-producing cells, an ELISPOT assay was used on purified CD4^+ T cells and DCs from lungs.

[3] = test system: A. fumigatus; assay: Local fungal growth after Aspergillus infection of TLR2-, TLR9- or MyD88-deficient mice; assay type: in vivo
Text: Female, 8- to 10-weeks old, BALB/c and C57BL6 mice were from Charles River. NOD/SCID were from The Jackson. Breeding pairs of homozygous TLR2-, TLR9- and MyD88-deficient mice, raised on C57BL6 background, and of homozygous IFN-gamma- and IL-4-deficient mice, raised on BALB/c background, were bred under specific-pathogen free conditions.
For infection with A. fumigatus, mice were intranasally injected for 3 consecutive days with a suspension of 2×10^7 conidia/20 microliter saline. For the quantification of fungal growth in the lungs, the chitin assay was used. The chitin content was expressed as micrograms of glucosamine per organ. The glucosamine content of lungs from uninfected mice was used as a negative control ranging between 0.80 and 2.25 microgram glucosamine/organ. For histological analysis, lungs were excised and immediately fixed in formalin. Sections (3 to 4 micron) of paraffin-embedded tissues were stained with the periodic acid-Schiff procedure. Thymosin alpha 1 (TA1) and the scrambled polypeptide are as purified sterile lyophilized acetylated polypeptides with endotoxin levels less than 0.03 pg/ml, by a standard limulus lysate assay. The sequences were as follows: Ac-[…]O (Thymosin alpha 1, SEQ ID NO.: 1) and Ac-[…]OH ([…]). Their lyophilized powders were reconstituted in sterile water.
The treatments were as follows; in BMT-mice, TA1, at different doses administered intraperitoneally, sthymosin alpha 1, 400 microgram/kg administered intraperitoneally or human recombinant G-CSF 250 microgram/kg administered intravenously, were given daily beginning the day of the BM infusion, in concomitance with the infection and continuing for an additional 3 days. Amphotericin B was given daily for 3 days in concomitance with the infection, at a dose of 4000 microgram/kg, administered intraperitoneally. This dose would cure IA in cyclophosphamide-treated mice. Cyclophosphamide, 150 mg/kg administered intraperitoneally, was given a day before the infection. […]

[4] = after stimulation with CpG (TLR9)
[5] = after stimulation with LTA (TLR2)
[6] = after stimulation with zymosan (TLR2)

Substance: Ac-Ser-Asp-Ala-Ala-Val-Asp-Thr-Ser-Ser-Glu-Ile-Thr-Thr-Lys-Asp-Leu-Lys-Glu-Lys-Lys-Glu-Val-Glu-Glu-Ala-Glu-Asn-O (Ac-SDAAVDTSSEITTKDLKEKKEVEEAEN-OH) [TA1, naturally occurring thymic peptide]
- production of IL-10 [1, 4]: decreases
- production of IL-12 p70 [1, 4]: significantly increased
- production of IL-10 [1, 5]: decreases
- production of IL-12 p70 [1, 5]: significantly increased
- production of IL-10 [1, 6]: decreases
- production of IL-12 p70 [1, 6]: significantly increased
- cytokine production (IL-12 p70 and IL-10) ([1]; in response to LPS (TLR4)): did not affect
- cytokine production (IL-12 p70 and IL-10) ([1]; in response to Poly(I:C)): did not affect
- production of IL-8 ([2]; TA1 alone): did not induce
- production of IL-8 ([2]; in response to the TLR4 ligand LPS): did not induce
- fungal growth ([3]; MyD88-deficient mice): not impaired
- fungal growth ([3]; TLR2-deficient mice): similarly impaired
- fungal growth ([3]; TLR9-deficient mice): similarly impaired
